# Read-outs that look alike come from different tables or passages of the source.
# How the values were obtained:
# MCF-7 cells = assay: MTT cytotoxicity test, MCF-7; format: cell-based; conditions: Homo sapiens; for inhibition at 50 µM: MCF7; for IC50: MCF7, 72 h
# Experimental: (§1) All compounds were evaluated in triplicate using six points, 1/3 dilutions, with the highest concentration of 50 µM. The triplicate measurements were placed in three different 96-plates, and 1% DMSO was used as a negative control.
# (§2) The first sets of […] (GH38, GH18, GH27, FH38, FH18, […] and FH37) were evaluated in different cancer cell lines: HepG2, MCF-7, SH-SY5Y, MIA PaCa-2, and […]. Furthermore, the second series of eight compounds were evaluated using seven cell lines: SH-SY5Y which is a neuroblastoma cell line; HepG2, a hepatocellular carcinoma cell line; MIA PaCa-2, a human pancreatic carcinoma cell line; MCF-7, a breast cancer cell line; HCC1954, a basal-Her2+ breast carcinoma cell line; RCC4-VA, a renal carcinoma cell line with a VHL mutation; and RCC4-VHL, a renal carcinoma cell without the VHL mutation (wild type). The cells used were seeded in 96-well plates and left for 24 h (5% CO2 and 90% humidity, 50000 cells/well) and incubated for 3 days to study the cytotoxicity.
# MIA PaCa-2 cells = assay: MTT cytotoxicity test, MIA PaCa-2; format: cell-based; conditions: Homo sapiens; for inhibition at 50 µM: MIA PaCa-2; for IC50: MIA PaCa-2, 72 h
# Experimental: as §1, §2
# HepG2 cells = assay: MTT cytotoxicity test, HepG2; format: cell-based; conditions: Homo sapiens; for inhibition at 50 µM: HepG2; for IC50: HepG2, 72 h
# Experimental: as §1, §2
# HCC1954 cells = assay: MTT cytotoxicity test, HCC1954; format: cell-based; conditions: 3 days
# Experimental: as §1, §2
# RCC4-VA cells = assay: MTT cytotoxicity test, RCC4-VA; format: cell-based; conditions: 72 h, 3 days
# Experimental: as §1, §2
# SH-SY5Y cells = assay: MTT cytotoxicity test, SH-SY5Y; format: cell-based; conditions: Homo sapiens, 72 h, 3 days
# Experimental: as §1, §2
# RCC4-VHL cells = assay: MTT cytotoxicity test, RCC4-VHL; format: cell-based; conditions: Homo sapiens, 72 h, 3 days
# Experimental: as §1, §2
# HDAC8 = target: T1, HDAC8 (Homo sapiens, UniProt Q9BY41); assay: HDAC fluorometric enzymatic inhibition assay, HDAC8; format: biochemical
# T1 construct: purchased Enzo Life Sciences BML-AK518
# T1 sequence (Q9BY41 1-377): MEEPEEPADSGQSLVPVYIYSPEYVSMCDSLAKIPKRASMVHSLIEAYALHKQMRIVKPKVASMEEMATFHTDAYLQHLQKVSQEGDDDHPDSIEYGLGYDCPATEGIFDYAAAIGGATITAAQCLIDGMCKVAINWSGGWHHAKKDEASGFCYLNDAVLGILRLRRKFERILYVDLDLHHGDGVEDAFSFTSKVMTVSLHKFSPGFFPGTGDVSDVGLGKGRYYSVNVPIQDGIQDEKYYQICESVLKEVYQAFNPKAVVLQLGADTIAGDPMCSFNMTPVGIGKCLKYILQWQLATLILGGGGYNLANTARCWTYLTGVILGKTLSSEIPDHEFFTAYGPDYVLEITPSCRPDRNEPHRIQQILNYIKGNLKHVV
# HDAC6 = target: T2, HDAC6 (Homo sapiens, UniProt Q9UBN7); assay: HDAC fluorometric enzymatic inhibition assay, HDAC6; format: biochemical
# T2 construct: purchased Enzo Life Sciences BML-AK516
# T2 sequence (Q9UBN7 1-1215): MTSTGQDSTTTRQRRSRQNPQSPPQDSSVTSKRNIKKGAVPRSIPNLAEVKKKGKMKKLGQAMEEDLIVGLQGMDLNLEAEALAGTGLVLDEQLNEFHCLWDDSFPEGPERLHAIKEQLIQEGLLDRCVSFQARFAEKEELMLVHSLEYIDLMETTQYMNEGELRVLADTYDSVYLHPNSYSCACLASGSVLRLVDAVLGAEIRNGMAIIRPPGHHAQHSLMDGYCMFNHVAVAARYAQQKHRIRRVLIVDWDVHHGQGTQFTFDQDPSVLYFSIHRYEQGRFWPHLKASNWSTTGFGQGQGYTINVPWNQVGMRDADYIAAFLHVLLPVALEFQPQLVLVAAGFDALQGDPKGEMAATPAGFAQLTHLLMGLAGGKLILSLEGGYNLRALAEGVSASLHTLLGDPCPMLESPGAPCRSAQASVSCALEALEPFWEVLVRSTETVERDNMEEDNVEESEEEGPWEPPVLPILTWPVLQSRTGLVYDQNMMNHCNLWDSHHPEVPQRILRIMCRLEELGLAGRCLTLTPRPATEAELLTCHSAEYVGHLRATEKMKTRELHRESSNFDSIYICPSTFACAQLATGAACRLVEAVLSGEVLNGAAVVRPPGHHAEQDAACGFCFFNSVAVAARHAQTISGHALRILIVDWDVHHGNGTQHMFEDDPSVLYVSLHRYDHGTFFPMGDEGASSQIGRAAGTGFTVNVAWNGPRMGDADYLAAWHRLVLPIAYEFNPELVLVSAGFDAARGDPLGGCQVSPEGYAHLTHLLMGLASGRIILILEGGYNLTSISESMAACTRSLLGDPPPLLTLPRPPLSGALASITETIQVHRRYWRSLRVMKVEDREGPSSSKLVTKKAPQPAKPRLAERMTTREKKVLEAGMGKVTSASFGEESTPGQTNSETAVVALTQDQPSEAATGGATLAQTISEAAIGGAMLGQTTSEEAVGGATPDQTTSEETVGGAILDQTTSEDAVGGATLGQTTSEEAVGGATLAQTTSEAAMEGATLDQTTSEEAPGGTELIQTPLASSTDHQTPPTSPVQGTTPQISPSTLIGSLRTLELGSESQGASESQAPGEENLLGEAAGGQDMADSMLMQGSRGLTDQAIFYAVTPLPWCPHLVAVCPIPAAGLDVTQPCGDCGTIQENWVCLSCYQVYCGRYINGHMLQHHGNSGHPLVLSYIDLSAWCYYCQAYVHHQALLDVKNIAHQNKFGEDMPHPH
# HDAC1 = target: T3, HDAC1 (Homo sapiens, UniProt Q13547); assay: HDAC fluorometric enzymatic inhibition assay, HDAC1; format: biochemical
# T3 construct: purchased Enzo Life Sciences BML-AK511
# T3 sequence (Q13547 whole entry): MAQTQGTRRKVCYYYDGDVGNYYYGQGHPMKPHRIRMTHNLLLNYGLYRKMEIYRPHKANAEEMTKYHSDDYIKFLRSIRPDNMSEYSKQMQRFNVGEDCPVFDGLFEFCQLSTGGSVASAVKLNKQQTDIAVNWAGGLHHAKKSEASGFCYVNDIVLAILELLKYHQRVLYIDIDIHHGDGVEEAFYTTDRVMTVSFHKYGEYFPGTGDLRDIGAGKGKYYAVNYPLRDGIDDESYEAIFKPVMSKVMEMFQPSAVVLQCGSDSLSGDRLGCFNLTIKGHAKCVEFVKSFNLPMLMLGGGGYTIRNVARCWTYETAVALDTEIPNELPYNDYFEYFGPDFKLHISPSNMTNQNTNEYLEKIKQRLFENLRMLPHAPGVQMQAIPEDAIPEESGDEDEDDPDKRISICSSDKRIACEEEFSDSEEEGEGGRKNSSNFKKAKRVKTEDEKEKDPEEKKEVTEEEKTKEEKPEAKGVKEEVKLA
# cancer cell lines = assay: Antiproliferative effect, cell line not stated; format: cell-based; conditions: second series, seven cancer cell lines
# Experimental: as §1, §2
# [1] = MTT, 3 days, read-out: IC50 (µM) MCF-7
# [2] = MTT, 3 days, read-out: IC50 (µM) MIA PaCa-2
# [3] = MTT, 3 days, read-out: IC50 (µM) HepG2
SMILES,inhibition at 50 µM (MCF-7 cells) [%],IC50 (MCF-7 cells; read-out: IC50 MCF-7) [µM],inhibition at 50 µM (MIA PaCa-2 cells) [%],IC50 (MIA PaCa-2 cells; read-out: IC50 MIA PaCa-2) [µM],inhibition at 50 µM (HepG2 cells) [%],IC50 (HepG2 cells; read-out: IC50 HepG2) [µM],IC50 (MCF-7 cells; [1]) [µM],"IC50 (HCC1954 cells; Homo sapiens, HCC1954, 72 h) [µM]",IC50 (RCC4-VA cells) [µM],IC50 (SH-SY5Y cells) [µM],IC50 (RCC4-VHL cells) [µM],IC50 (MIA PaCa-2 cells; [2]) [µM],IC50 (HepG2 cells; [3]) [µM],also measured
"Cc1ccc(C(=O)N[C@@H](Cc2ccccc2)C(=O)NO)cc1 [FH18, (S)-N-(1-(hydroxyamino)-1-oxo-3-phenylpropan-2-yl)-4-methylbenzamide]",41.2,> 50,0.05,> 50,5.52,> 50,–,–,–,–,–,–,–,–
"CCCCc1ccc(C(=O)N[C@@H](Cc2ccccc2)C(=O)NO)cc1 [FH27, (S)-4-butyl-N-(1-(hydroxyamino)-1-oxo-3-phenylpropan-2-yl)benzamide]",37.6,> 50,2.82,> 50,35.4,> 50,–,–,–,–,–,–,–,–
"CCCC(CCC)C(=O)N[C@@H](Cc1ccccc1)C(=O)NO [FH37, (S)-N-(1-(hydroxyamino)-1-oxo-3-phenylpropan-2-yl)-2-propylpentanamide]",49.1,> 50,7.47,> 50,48.6,> 50,–,–,–,–,–,–,–,–
"O=C(N[C@@H](Cc1ccccc1)C(=O)NO)c1ccccc1 [FH38, (S)-N-(1-(hydroxyamino)-1-oxo-3-phenylpropan-2-yl)benzamide]",21,> 50,0.43,> 50,14.1,> 50,–,–,–,–,–,–,–,–
"Cc1ccc(C(=O)NCC(=O)NO)cc1 [GH18, N-(2-(hydroxyamino)-2-oxoethyl)-4-methyl benzamide]",17.2,> 50,4.44,> 50,3.08,> 50,–,–,–,–,–,–,–,–
"CCCCc1ccc(C(=O)NCC(=O)NO)cc1 [GH27, 4-butyl-N-(2-(hydroxyamino)-2-oxoethyl)benzamide]",40.4,> 50,10.7,> 50,1.38,> 50,–,–,–,–,–,–,–,–
"O=C(CNC(=O)c1ccccc1)NO [GH38, N-(2-(hydroxyamino)-2-oxoethyl)benzamide]",16.1,> 50,0.18,> 50,1.01,> 50,–,–,–,–,–,–,–,–
"CCCCc1ccc(C(=O)N[C@@H](Cc2ccc(O)cc2)C(=O)NO)cc1 [YSL-99, (S)-4-butyl-N-(1-(hydroxyamino)-3-(4-hydroxyphenyl)-1-oxopropan-2-yl)benzamide]",–,–,–,–,–,–,8.96,42.9,> 50,36.2,> 50,> 50,30.9,–
"CCCCc1ccc(C(=O)N[C@H](Cc2ccccc2)C(=O)NO)cc1 [YSL-106, (R)-4-butyl-N-(1-(hydroxyamino)-1-oxo-3-phenylpropan-2-yl)benzamide]",–,–,–,–,–,–,4.94,26.1,12.9,18.9,21.1,21.6,11.6,–
"CCCCc1ccc(C(=O)N[C@@H](Cc2cccc3ccccc23)C(=O)NO)cc1 [YSL-109, (S)-4-butyl-N-(1-(hydroxyamino)-3-(naphthalen-1-yl)-1-oxopropan-2-yl)benzamide]",–,–,–,–,–,–,3.41,3.41,24.9,6.42,32.7,> 50,3.39,IC50 (HDAC8; read-out: IC50 (nM) HDAC8): 2240 nM; IC50 (HDAC8; read-out: IC50 HDAC8): 2240 nM; IC50 (HCC1954 cells): 3.77 µM; IC50 (HDAC6): 0.537 nM; selectivity for HDAC6 (HDAC6; HDAC6 compared with HDAC8 and HDAC1): 4000 fold; IC50 (HDAC1; read-out: IC50 (nM) HDAC1): 259000 nM; IC50 (HDAC1; read-out: IC50 HDAC1): 259000 nM
"CCCCc1ccc(C(=O)N[C@@H](Cc2ccc3ccccc3c2)C(=O)NO)cc1 [YSL-112, (S)-4-butyl-N-(1-(hydroxyamino)-3-(naphthalen-2-yl)-1-oxopropan-2-yl)benzamide]",–,–,–,–,–,–,7.27,7.62,31.9,21.4,46.5,> 50,10.8,–
"CCCCc1ccc(C(=O)N[C@@H](Cc2ccc(F)cc2)C(=O)NO)cc1 [YSL-116, (S)-4-butyl-N-(3-(4-fluorophenyl)-1-(hydroxyamino)-1-oxopropan-2-yl)benzamide]",–,–,–,–,–,–,27.9,18,38.9,19.6,44.2,> 50,18,–
"CCCCc1ccc(C(=O)N[C@@H](Cc2ccc(I)cc2)C(=O)NO)cc1 [YSL-121, (S)-4-butyl-N-(1-(hydroxyamino)-3-(4-iodophenyl)-1-oxopropan-2-yl)benzamide]",–,–,–,–,–,–,> 50,8.49,> 50,1.41,> 50,> 50,41.1,–
"CCCCc1ccc(C(=O)N[C@@H](Cc2ccc([N+](=O)[O-])cc2)C(=O)NO)cc1 [YSL-125, (S)-4-butyl-N-(1-(hydroxyamino)-3-(4-nitrophenyl)-1-oxopropan-2-yl)benzamide]",–,–,–,–,–,–,16.6,14.8,10.5,6.5,8.02,42.5,15.7,–
"CCCCc1ccc(C(=O)N[C@H](C(=O)NO)c2ccccc2)cc1 [YSL-129, (S)-4-butyl-N-(2-(hydroxyamino)-2-oxo-1-phenylethyl)benzamide]",–,–,–,–,–,–,> 50,> 50,> 50,> 50,> 50,> 50,> 50,biological activity (cancer cell lines): did not show biological activity

# — PMC7320180, “Hydroxamic acid derivatives as HDAC1, HDAC6 and HDAC8 inhibitors with antiproliferative activity in cancer cell lines” (Scientific Reports, 2020)
